# Assay results taken from ChEMBL document CHEMBL4342426, “Structure-activity relationship of 4-azaindole-2-piperidine derivatives as agents against Trypanosoma cruzi” (Bioorg Med Chem Lett, 2020).
# Experiments:
# [1] = test system: Leishmania infantum; test: microbe, parasite or virus in culture; settings: for IC50: MHOM/MA(BE)/67/ITMAP263, 120 h; for IC90: MHOM/MA(BE)/67/ITMAP263, in Mus musculus, 120 h
# Description: Antileishmanial activity against amastigote stage of Leishmania infantum MHOM/MA(BE)/67/ITMAP263 infected in mouse peritoneal macrophage assessed as parasite growth inhibition incubated for 5 days by Giemsa staining based assay
# [2] = in vitro; settings: mouse, peritoneal macrophages
# Description: (§1) Cytotoxicity against mouse peritoneal Macrophage cells assessed as reduction in cell viability incubated for 3 days by fluorimetry
# [3] = test system: Trypanosoma brucei rhodesiense; test: microbe, parasite or virus in culture; settings: STIB900, 72 h
# Description: Antiprotozoal activity against Trypanosoma brucei rhodesiense STIB900 trypomastigotes incubated for 72 hrs by resazurin dye based fluorimetric analysis
# [4] = test system: Trypanosoma brucei; test: microbe, parasite or virus in culture; settings: Squib 427, 72 h
# Description: Antitrypanosomal activity against Trypanosoma brucei Squib 427 assessed as reduction in parasite growth incubated for 72 hrs by resazurin dye based fluorimetric analysis
# [5] = test system: Trypanosoma cruzi; test: microbe, parasite or virus in culture; settings: Tulahuen CL2, MRC-5 SV2, 168 h
# Description: Antitrypanosomal activity against Trypanosoma cruzi Tulahuen CL2 amastigotes infected in human MRC5 SV2 cells incubated for 7 days by chlorophenol red beta-D-galactopyranoside substrate based spectrophotometric assay
# [6] = in vitro; settings: human, liver microsomes
# Description: Metabolic stability in human liver microsomes assessed as intrinsic clearance at 0.5 uM incubated for 30 mins by LC-MS/MS analysis
# [7] = physchem; settings: buffer, pH 7.4
# Description: Lipophilicity, logD of compound at pH 7.4 by HPLC analysis
# [8] = in vitro; settings: PAMPA
# Description: Effective permeability of compound by PAMPA assay
# [9] = test system: Macrophage; test: cells; settings: Mus musculus, 72 h
# Description: as §1
# [10] = in vitro; settings: human, MRC5 SV2 cells
# Description: Selectivity index, ratio of IC50 for human MRC5 SV2 cells to IC50 for Trypanosoma cruzi Tulahuen CL2 amastigotes infected in human MRC5 SV2 cells
# [11] = in vitro; settings: mouse, liver microsomes
# Description: Metabolic stability in mouse liver microsomes assessed as intrinsic clearance at 0.5 uM incubated for 30 mins by LC-MS/MS analysis
# [12] = cells; settings: Homo sapiens, MRC-5 SV2, 72 h
# Description: (§2) Cytotoxicity against human MRC5 SV2 cells assessed as reduction in cell viability incubated for 3 days by fluorimetry
# [13] = in vitro; settings: human, MRC5 SV2 cells; remark: listed apart in the source
# Description: as §2
# [14] = in vitro; settings: mouse, liver microsomes; remark: listed apart in the source
# Description: Metabolic stability in mouse liver microsomes assessed as fraction unbound at 0.5 uM incubated for 30 mins by LC-MS/MS analysis
Compound,IC50 [1] [µM],IC90 [1] [µM],IC90 at 72 h [2] [µM],IC50 [3] [µM],IC90 [3] [µM],IC50 [4] [µM],IC90 [4] [µM],IC50 [5] [µM],IC90 [5] [µM],"CLint scaled at 0.5 h, 0.5 µM [6] [mL/min/kg]","microsomal CLint at 0.5 h, 0.5 µM [6] [µL/min/mg]",logD [7],Papp [8] [×10⁻⁶ cm/s],IC50 [9] [µM],selectivity ratio [10],"CLint scaled at 0.5 h, 0.5 µM [11] [mL/min/kg]","microsomal CLint at 0.5 h, 0.5 µM [11] [µL/min/mg]",IC50 [12] [µM],IC90 at 72 h [13] [µM],"fraction unbound at 0.5 h, 0.5 µM [14]"
O=C(c1ccc(F)cc1)N1CCC(c2cc3ncccc3[nH]2)C1 (stereo unspecified),64,64,64,43.9,64,64,64,8.99,64,68.7,44.6,2.62,1.58,64,7.15,5590,1230,64,64,–
N#Cc1ccc(C(=O)N2CCCC(c3cc4ncccc4[nH]3)C2)cc1 (stereo unspecified),64,64,64,64,64,64,64,25.6,59,51.5,< 23,2.37,0.379,64,2.49,–,–,64,64,–
Cn1nccc1C(=O)N1CCCC(c2cc3ncccc3[nH]2)C1 (stereo unspecified),64,64,64,64,64,64,64,64,64,33.5,27.5,1.8,1.03 to 1.37,64,–,115,31.9,64,64,0.89
Cc1nc(C)c(C(=O)N2CCCC(c3cc4ncccc4[nH]3)C2)o1 (stereo unspecified),64,64,64,64,64,64,64,64,64,< 31.2,< 23,2.15,1.56 to 2.14,64,–,314,78.8,64,64,0.801
O=C(c1ccc(F)cc1)N1CC=C(c2cc3ncccc3[nH]2)CC1,39.1,58.5,64,39.4,64,64,64,2.54,64,≥ 38,35.2,3.06,0.907,64,25.1,≥ 623,195,64,64,–
COc1cccc(C(=O)N2CCCC(c3cc4ncccc4[nH]3)C2)c1OC (stereo unspecified),32,32,32,31,32,32,32,4.03,7.52,110,–,–,–,32,8,2600,–,32,32,–
Cc1ccoc1C(=O)N1CCCC(c2cc3ncccc3[nH]2)C1 (stereo unspecified),64,64,64,64,64,64,64,21.3,55.5,167,129,2.86,3.09,64,3,6690,1750,64,64,–
O=C(c1cc(C2CC2)on1)N1CCCC(c2cc3ncccc3[nH]2)C1 (stereo unspecified),32,32,32,25.2,32,32,32,3.92,7.5,32.7,–,–,–,32,8.15,1830,–,32,32,–
O=C(c1ccc(C(F)(F)F)nc1)N1CCCC(c2cc3ncccc3[nH]2)C1 (stereo unspecified),64,64,64,64,64,64,64,64,64,50.3,27.9,2.68,0.887,64,–,132,24.9,64,64,0.6
O=C(c1ccccc1)N1CCCC(c2cn3ncccc3n2)C1 (stereo unspecified),64,64,64,64,64,64,64,64,64,167,135,2.39,13.9,64,–,10500,2900,64,64,0.877
COc1ccc(C(=O)N2CCCC(c3cc4ncccc4[nH]3)C2)cc1OC (stereo unspecified),64,64,64,64,64,64,64,8.96,64,< 32.2,< 23,2.61,1.58,64,7.15,564,137,64,64,–
COc1ccc2cc(C(=O)N3CCCC(c4cc5ncccc5[nH]4)C3)[nH]c2c1 (stereo unspecified),32,32,32,32,32,32,32,4.03,7.62,1620,–,–,–,32,7.95,1000,–,32,32,–
O=C(c1ccccc1)N1CCN(c2nc3ccccc3s2)CC1,64,64,64,64,64,64,64,64,64,–,–,3.4,40.4,64,–,24700,4010,64,64,0.518
O=C(c1ccccc1)N1CCCC(c2nc3ncccc3[nH]2)C1 (stereo unspecified),64,64,64,64,64,64,64,64,64,< 35,< 23,1.97,2.43,64,–,763,173,64,64,0.723
O=C(OCc1ccccc1)N1CCCC(c2cn3cccnc3n2)C1 (stereo unspecified),64,64,64,55.4,64,64,64,34.5,64,–,–,–,–,64,1.88,–,–,64,64,–
CC(C)(C)OC(=O)N1CCCC(c2cn3nc(Cl)ccc3n2)C1 (stereo unspecified),64,64,64,64,64,64,64,29.5,60.3,> 200,185,4.04,22.4,64,2.15,> 11300,3540,64,64,–
O=C(c1cc(C(F)(F)F)n[nH]1)N1CCCC(c2cc3ncccc3[nH]2)C1 (stereo unspecified),64,64,64,64,64,64,64,64,64,278,127,3.07,0.881,64,–,832,128,64,64,0.493
